Laboratory results from ChEMBL document CHEMBL1147975, “Synthesis, structure, and structure-activity relationship analysis of enamines as potential antibacterials” (2007).
Values after ≈ are worked out from the molar mass of the structure shown.

Columns and labels:
Assay type in all cases: functional
Bacillus subtilis = assay: Antibacterial activity against Bacillus subtilis ATCC 6633 after 24 hrs by MTT method; conditions: ATCC 6633, 24 h
Escherichia coli = assay: Antibacterial activity against Escherichia coli ATCC 35218 after 24 hrs by MTT method; conditions: ATCC 35218, 24 h
Staphylococcus aureus = assay: Antibacterial activity against Staphylococcus aureus ATCC 6538 after 24 hrs by MTT method; conditions: ATCC 6538, 24 h
Aspergillus niger = assay: Antifungal activity against Aspergillus niger ATCC 16404 after 48 hrs by MTT method; conditions: ATCC 16404, 48 h
Pseudomonas fluorescens = assay: Antibacterial activity against Pseudomonas fluorescens ATCC 13525 after 24 hrs by MTT method; conditions: ATCC 13525, 24 h
Candida albicans = assay: Antifungal activity against Candida albicans ATCC 10231 after 48 hrs by MTT method; conditions: ATCC 10231, 48 h
Trichophyton rubrum = assay: Antifungal activity against Trichophyton rubrum ATCC 10218 after 48 hrs by MTT method; conditions: ATCC 10218, 48 h

| Structure (SMILES) | MIC (Bacillus subtilis) | MIC (Escherichia coli) | MIC (Staphylococcus aureus) | MIC (Aspergillus niger) | MIC (Pseudomonas fluorescens) | MIC (Candida albicans) | MIC (Trichophyton rubrum) |
| --- | --- | --- | --- | --- | --- | --- | --- |
| CCOC(=O)/C(=C/Nc1cc(F)cc(F)c1)c1ccc(OC)cc1 | > 50 µg/mL | > 50 µg/mL | 22.8 µg/mL (≈ 68.4 µM) | > 50 µg/mL | 31.5 µg/mL (≈ 94.5 µM) | > 50 µg/mL | – |
| CCOC(=O)/C(=C/Nc1cc(Br)c(OC)c(Br)c1)c1ccc(OC)cc1 | > 50 µg/mL | > 50 µg/mL | > 50 µg/mL | > 50 µg/mL | 33 µg/mL (≈ 68 µM) | > 50 µg/mL | – |
| CCOC(=O)/C(=C/Nc1cc(Cl)cc(Cl)c1)c1ccc(OC)cc1 | 42.2 µg/mL (≈ 115 µM) | 42.2 µg/mL (≈ 115 µM) | 20.2 µg/mL (≈ 55.2 µM) | > 50 µg/mL | 27.8 µg/mL (≈ 75.9 µM) | > 50 µg/mL | – |
| CCOC(=O)/C(=C\Nc1cc(F)cc(F)c1)c1ccc(Cl)cc1 | > 50 µg/mL | > 50 µg/mL | > 50 µg/mL | > 50 µg/mL | > 50 µg/mL | > 50 µg/mL | – |
| CCOC(=O)/C(=C/Nc1ccc(O)cc1)c1ccc(OC)cc1 | > 50 µg/mL | > 50 µg/mL | 3.8 µg/mL (≈ 12.1 µM) | > 50 µg/mL | > 50 µg/mL | > 50 µg/mL | – |
| CCOC(=O)/C(=C/Nc1ccc(C)cc1)c1ccc(Cl)cc1 | > 50 µg/mL | > 50 µg/mL | 0.9 µg/mL (≈ 2.85 µM) | – | > 50 µg/mL | > 50 µg/mL | – |
| CCOC(=O)/C(=C/Nc1ccc(Cl)cc1)c1ccc(Cl)cc1 | 42 µg/mL (≈ 125 µM) | 42.5 µg/mL (≈ 126 µM) | > 50 µg/mL | > 50 µg/mL | 29.5 µg/mL (≈ 87.7 µM) | > 50 µg/mL | – |
| CCOC(=O)/C(=C\Nc1ccc(Br)cc1)c1ccc(Cl)cc1 | > 50 µg/mL | > 50 µg/mL | > 50 µg/mL | > 50 µg/mL | > 50 µg/mL | > 50 µg/mL | – |
| CCOC(=O)/C(=C/Nc1cc(OC)cc(OC)c1)c1ccc(OC)cc1 | > 50 µg/mL | 41.5 µg/mL (≈ 116 µM) | 15.8 µg/mL (≈ 44.2 µM) | > 50 µg/mL | 25.2 µg/mL (≈ 70.5 µM) | > 50 µg/mL | – |
| CCOC(=O)/C(=C\Nc1ccccc1Cl)c1ccc(Cl)cc1 | > 50 µg/mL | 42.5 µg/mL (≈ 126 µM) | > 50 µg/mL | > 50 µg/mL | > 50 µg/mL | > 50 µg/mL | – |
| CCOC(=O)/C(=C\Nc1ccc(Cl)cc1)c1ccc(Cl)cc1 | > 50 µg/mL | > 50 µg/mL | > 50 µg/mL | > 50 µg/mL | 32.2 µg/mL (≈ 95.8 µM) | > 50 µg/mL | – |
| CCOC(=O)/C(=C/Nc1ccc(Br)cc1)c1ccc(OC)cc1 | > 50 µg/mL | > 50 µg/mL | > 50 µg/mL | > 50 µg/mL | 31.7 µg/mL (≈ 84.3 µM) | > 50 µg/mL | – |
| CCOC(=O)/C(=C/Nc1ccccc1Cl)c1ccc(Cl)cc1 | 43.8 µg/mL (≈ 130 µM) | 38.8 µg/mL (≈ 115 µM) | > 50 µg/mL | > 50 µg/mL | 35.3 µg/mL (≈ 105 µM) | > 50 µg/mL | – |
| CCOC(=O)/C(=C/Nc1cc(Cl)cc(Cl)c1)c1ccc(Cl)cc1 | > 50 µg/mL | > 50 µg/mL | 1.1 µg/mL (≈ 2.97 µM) | > 50 µg/mL | 25.7 µg/mL (≈ 69.3 µM) | > 50 µg/mL | – |
| CCOC(=O)/C(=C\Nc1ccc(C)cc1)c1ccc(Cl)cc1 | > 50 µg/mL | > 50 µg/mL | > 50 µg/mL | > 50 µg/mL | > 50 µg/mL | > 50 µg/mL | – |
| CCOC(=O)/C(=C/Nc1ccc(Br)cc1)c1ccc(Cl)cc1 | > 50 µg/mL | > 50 µg/mL | > 50 µg/mL | > 50 µg/mL | > 50 µg/mL | > 50 µg/mL | – |
| CCOC(=O)/C(=C\Nc1cc(OC)cc(OC)c1)c1ccc(OC)cc1 | > 50 µg/mL | > 50 µg/mL | 43.5 µg/mL (≈ 122 µM) | > 50 µg/mL | 30 µg/mL (≈ 83.9 µM) | > 50 µg/mL | – |
| CCOC(=O)/C(=C/Nc1cc(F)cc(F)c1)c1ccc(Cl)cc1 | 48.2 µg/mL (≈ 143 µM) | > 13.5 µg/mL | 1.9 µg/mL (≈ 5.63 µM) | > 50 µg/mL | 31.5 µg/mL (≈ 93.3 µM) | > 50 µg/mL | – |
| CCOC(=O)/C(=C\Nc1cc(F)cc(F)c1)c1ccc(OC)cc1 | > 50 µg/mL | > 50 µg/mL | > 50 µg/mL | > 50 µg/mL | > 50 µg/mL | > 50 µg/mL | – |
| CCOC(=O)/C(=C\Nc1cc(Cl)cc(Cl)c1)c1ccc(Cl)cc1 | > 50 µg/mL | > 50 µg/mL | > 50 µg/mL | > 50 µg/mL | > 50 µg/mL | > 50 µg/mL | – |
| CCOC(=O)/C(=C\Nc1ccc(O)cc1)c1ccc(OC)cc1 | > 50 µg/mL | > 50 µg/mL | 7.9 µg/mL (≈ 25.2 µM) | > 50 µg/mL | > 50 µg/mL | > 50 µg/mL | – |
| CCOC(=O)/C(=C\Nc1ccc(Br)cc1)c1ccc(OC)cc1 | > 50 µg/mL | > 50 µg/mL | > 50 µg/mL | > 50 µg/mL | > 50 µg/mL | > 50 µg/mL | – |
| CCOC(=O)/C(=C\Nc1cc(Cl)cc(Cl)c1)c1ccc(OC)cc1 | > 50 µg/mL | > 50 µg/mL | > 50 µg/mL | > 50 µg/mL | 33.8 µg/mL (≈ 92.3 µM) | > 50 µg/mL | – |
| CCOC(=O)/C(=C\Nc1cc(Br)c(OC)c(Br)c1)c1ccc(OC)cc1 | > 50 µg/mL | > 50 µg/mL | > 50 µg/mL | > 50 µg/mL | > 50 µg/mL | > 50 µg/mL | > 50 µg/mL |
| NC[C@H]1O[C@H](O[C@H]2[C@H](O)[C@@H](O[C@H]3O[C@H](CO)[C@@H](O)[C@H](N)[C@H]3O)[C@H](N)C[C@@H]2N)[C@H](O)[C@@H](O)[C@@H]1O [KANAMYCIN] | 0.39 µg/mL (≈ 0.805 µM) | 3.9 µg/mL (≈ 8.05 µM) | 1 µg/mL (≈ 2.06 µM) | – | 3.9 µg/mL (≈ 8.05 µM) | – | – |
